Data published in a melting point compilation (Tetko et al.; mined from patent text by program, amines drawn as free bases though some values may be those of a salt).

Row | SMILES | melting point [°C]
1 | COc1ccc(-c2ccc3nc(NC(=O)c4ccc(C(C)(C)C)cc4)cn3c2)cn1 | 245 to 247
2 | ICCCCCCOc1ccc(C2=C(c3ccccc3)CCCc3cc(OC4CCCCO4)ccc32)cc1 (stereo not drawn) | 108 to 110
3 | BrCC[Si](CCBr)(CCBr)CCBr | 90 to 91
4 | CCCCCC(CC(=O)Nc1cc(C(N)=O)ccc1C(C)(C)C)c1ccc(OC)cc1OC (single isomer, unassigned; (+)) | 152
5 | O=Cc1ccnc2c1NC(=O)c1cccnc1N2C1CC1 | 220 to 222
6 | O=C1CCCCC1c1ncc[nH]1 (stereo not drawn) | 104 to 105
7 | O=[N+]([O-])c1ccc(Oc2cccc3cccnc23)c(Cl)c1 | 113 to 115
8 | CC(C)c1nc(C(C)C)c(CNC2CC2)c(-c2ccc(F)cc2)c1CO | 81 to 83
9 | CC(C)(C)c1cc(N(C(=O)C=CC(=O)O)c2ccccc2)cc(C(C)(C)C)c1O | 154 to 157
10 | c1cc(C2=NCCS2)nc(C2OCCO2)c1 | 50 to 52
11 | COc1c(C2CCN(CCCCNC(=O)c3ccc(-c4ccc(NC(=O)C(F)(F)F)cc4)cc3)CC2)ccc2c1CCCC2 | 226 to 228
12 | NCC1Cc2cc(F)cc(-c3ccc(Cl)cc3Cl)c2O1 (stereo not drawn) | 107 to 109
13 | CCc1nn(CCOc2ccc(CC3SC(=O)NC3=O)cc2)c(=O)c2ccccc12 (stereo not drawn) | 174
14 | O=C(Nc1cccc(C2CN3CCSC3=N2)c1)c1ccc(Br)nc1 (stereo not drawn) | 149 to 153
15 | Cc1[nH]c(-c2ccccc2)c(N)c1C(=O)C(C)C | 180 to 183
16 | CCNc1cccc(-c2ccnc3c(C(=O)c4cccs4)cnn23)c1 | 154 to 155
17 | Cn1c(CC#N)ccc1C(=O)c1ccc([N+](=O)[O-])cc1 | 167 to 169
18 | O=C(O)CCc1cn(Cc2ccc(OCc3ccc4ccccc4n3)nc2)nc1-c1ccccc1 | 166 to 167
19 | Cc1cc(-c2cc(C(F)F)n3ncc(-c4ccncc4)c3n2)ccc1C(F)(F)F | 236
20 | CCOC(=O)c1cc2ccccc2n1CC#N | 65 to 67
21 | O=[N+]([O-])c1ccc2[nH]cc(C3=CCNCC3F)c2c1 (stereo not drawn) | 205 to 207
22 | Cc1nc(N2CCN(Cc3ccc(OC(F)(F)F)cc3)C2=O)sc1C(=O)NC[C@H](O)c1ccccc1 | 149 to 151
23 | CCNC(=O)NCCCNn1c(COCC)nc2c(N)nc3c(c21)CCCC3 | 189 to 191
24 | CC(C)(C)NC(=O)[C@@H]1C[C@H](N2CCOCC2)CN1C(=O)[C@@H](O)[C@H](Cc1ccccc1)NC(=O)[C@H](CC(N)=O)NC(=O)OCc1ccccc1 | 115 to 117

Row | SMILES | melting point [°C]
25 | NNc1nc2cc(Cl)ccc2nc1Cl | < 250
26 | C[C@@H]1S[C@@H](C(=O)Nc2ccc(CN3C(=O)CN(C)C3=O)cc2)Cc2cc3c(cc2C1=O)OCO3 | 228 to 230
27 | Cc1nsc2ccc(-n3c(=O)c(Cl)c(C(F)(F)F)n(C)c3=O)cc12 | 252 to 254
28 | O=S1(=O)CCN2C=CC=C(c3ccc(Oc4ccccc4)cc3)C2=N1 | 251 to 252
29 | O=C(CCCCCBr)N1Cc2ccccc2C1 | 88
30 | COc1cc(C(C)=O)ccc1C1CCCCO1 (stereo not drawn) | 67 to 69
31 | CC(C)n1c(=O)[nH]c2cccc(OCc3ccccc3)c21 | 224
32 | COc1ccncc1-c1cccc(OC2SCC(O)C(O)C2O)c1 (stereo not drawn) | 195
33 | CSc1ccc(C(=O)Nc2cccnc2C(=O)Nc2ccc(Cl)cn2)c(OCCN)c1 | 158 to 159
34 | O=C(NO)c1ccc(CNC(=O)c2[nH]c(-c3ccoc3)cc2-c2ccc(F)cc2)cc1 | 162 to 164
35 | CC1(C)CC2(CC(C)(C)N1)NC(=O)N(CC(O)COC(=O)CCCCC(=O)OCC(O)CN1C(=O)NC3(CC(C)(C)NC(C)(C)C3)C1=O)C2=O (stereo not drawn) | 132 to 134
36 | CCCc1cc(CC(=O)OC)ccc1OC1COc2ccc(C(C)=O)c(O)c2C1 (stereo not drawn) | 59 to 60
37 | Cc1ncccc1Oc1ccc(NC(=O)N2CCc3c(n(C)c4ccccc34)CC2)cn1 | 159 to 160
38 | O=C(NCCC(F)=C(F)F)N(c1ccccc1)c1ccccc1 | 116 to 117
39 | COc1cc(Cc2cnc(N3C(=O)c4ccccc4C3=O)nc2N)cc(OC)c1OC | 221
40 | ON=C(c1cccc(F)c1)c1ccc(O)c(Cl)c1Cl | 178 to 185
41 | CC(=O)Oc1cc(C)c(C)cc1C1(OC(C)=O)C(=O)c2ccccc2C1=O | 206 to 207
42 | CCCCS(=O)(=O)NC(=O)C[C@H]1O[C@H](c2cccc(OC)c2OC)c2cc(Cl)ccc2N(CC(C)(C)CO)C1=O | 123 to 125
43 | CC(=O)c1cc(NC(=O)CCCC(=O)Nc2cc(C(C)=O)cc(C(C)=O)c2)cc(C(C)=O)c1 | 200 to 203
44 | Nc1nc2c(c(=O)[nH]1)C(CCc1ccc(C(=O)O)cc1)CN2 (stereo not drawn) | > 290
45 | CCOC(=O)c1c(C)nc2cc(OC)c(OC)cc2c1-c1ccc(OC)c(OC)c1 | 147 to 148
46 | Cn1cc(C(=O)O)c(=O)c2cc3cc(F)c(N4CCN(O)CC4)cc3nc21 | 290
47 | CC(=O)C(C)Oc1cc(N)c(Cl)cc1C(=O)NCCN(C)C (stereo not drawn) | 124 to 125
48 | CCCCCCCCCCCCCCCCOC(=O)c1cc(C(=O)OCCCCCCCCCCCCCCCC)cc(S(=O)(=O)Cl)c1 | 48 to 50
